Consider twelve compounds from ChEMBL document CHEMBL1201862, “PubChem BioAssay data set” (2004).

The source made the active and inactive calls.

Test [1] addresses DNA dC->dU-editing enzyme APOBEC-3G (Homo sapiens, UniProt Q9HC16). The class given is functional.
Test [2] addresses T1, Carboxy-terminal domain RNA polymerase II polypeptide A small phosphatase 1 (Homo sapiens, UniProt Q9GZU7).
T1 sequence (Q9GZU7 whole entry): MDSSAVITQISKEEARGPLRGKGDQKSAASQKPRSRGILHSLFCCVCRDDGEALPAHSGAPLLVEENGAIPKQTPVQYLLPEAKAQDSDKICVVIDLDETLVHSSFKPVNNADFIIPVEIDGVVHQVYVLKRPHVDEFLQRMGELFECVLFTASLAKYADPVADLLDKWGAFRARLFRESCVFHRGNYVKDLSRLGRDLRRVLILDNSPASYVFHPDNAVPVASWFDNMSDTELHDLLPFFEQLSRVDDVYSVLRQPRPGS
Description: inhibitors of CTDSP1, concentration-response testing, biochemical assay, absorbance-based, actives from ultra-high-throughput screening (AID 540297). The format is functional.

The target in test [3] is DNA dC->dU-editing enzyme APOBEC-3A (Homo sapiens, UniProt P31941). Description: Dose Response confirmation of small molecule APOBEC3A DNA Deaminase Inhibitors via a fluorescence-based single-stranded DNA deaminase assay. [Related pubchem assays (depositor defined):AID493011, AID493024]. The format is functional.
Chain of DNA dC->dU-editing enzyme APOBEC-3A (P31941 whole entry): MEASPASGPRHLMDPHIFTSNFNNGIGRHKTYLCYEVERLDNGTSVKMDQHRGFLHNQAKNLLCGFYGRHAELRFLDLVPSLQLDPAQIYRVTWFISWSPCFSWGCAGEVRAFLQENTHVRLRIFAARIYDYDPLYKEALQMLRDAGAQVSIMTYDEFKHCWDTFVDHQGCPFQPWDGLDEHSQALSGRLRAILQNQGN
Test [4] concerns the target T2, Short transient receptor potential channel 4 (Mus musculus, UniProt Q9QUQ5).
T2 sequence (Q9QUQ5 whole entry): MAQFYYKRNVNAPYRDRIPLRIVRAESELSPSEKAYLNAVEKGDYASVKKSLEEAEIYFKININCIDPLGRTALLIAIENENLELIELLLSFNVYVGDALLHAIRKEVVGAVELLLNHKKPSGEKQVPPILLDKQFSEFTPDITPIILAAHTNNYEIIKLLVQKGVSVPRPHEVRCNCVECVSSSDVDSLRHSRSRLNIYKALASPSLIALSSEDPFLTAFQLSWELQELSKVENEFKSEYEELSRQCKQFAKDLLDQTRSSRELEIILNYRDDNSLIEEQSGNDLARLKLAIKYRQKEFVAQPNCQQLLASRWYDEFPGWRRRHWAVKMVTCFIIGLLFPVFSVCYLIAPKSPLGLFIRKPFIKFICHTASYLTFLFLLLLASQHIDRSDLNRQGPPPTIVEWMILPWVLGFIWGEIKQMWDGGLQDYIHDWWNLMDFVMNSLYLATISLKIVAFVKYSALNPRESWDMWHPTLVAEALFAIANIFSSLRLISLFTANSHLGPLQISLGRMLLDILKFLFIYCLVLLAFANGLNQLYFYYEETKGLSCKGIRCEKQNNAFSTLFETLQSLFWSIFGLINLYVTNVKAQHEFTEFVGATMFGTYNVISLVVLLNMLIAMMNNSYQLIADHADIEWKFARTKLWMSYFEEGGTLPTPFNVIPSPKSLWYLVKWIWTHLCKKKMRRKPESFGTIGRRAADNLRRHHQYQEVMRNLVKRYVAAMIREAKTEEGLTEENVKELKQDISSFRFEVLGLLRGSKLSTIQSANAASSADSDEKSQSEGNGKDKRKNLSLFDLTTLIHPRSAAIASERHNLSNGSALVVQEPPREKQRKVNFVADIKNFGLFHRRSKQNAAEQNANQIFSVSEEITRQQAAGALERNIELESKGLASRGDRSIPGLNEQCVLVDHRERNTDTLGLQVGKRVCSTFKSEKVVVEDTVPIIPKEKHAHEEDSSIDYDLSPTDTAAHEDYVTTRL
Description: mouse TRPC4 channel inhibitors, dose response, cell-based, HEK293 TRPC4/mu-opioid, Fluo-4 calcium (AID 434942).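 Further: potency of inhibitors blocking the TRPC4 calcium response.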 The format is functional.

For another test, the system named is H4. Description: Luminescence Cell-Based Dose Response HTS to Identify Activators of 5'UTR Stem-Loop Driven Prion Protein mRNA Translation in H4 Neuroglioblastoma Cells. [Related pubchem assays: 1829 (Project Summary), 1814 (Primary HTS)]. The format is functional. The following applies: Homo sapiens.
Test [5] deals with T3, Microphthalmia-associated transcription factor (Homo sapiens, UniProt O75030).
T3 sequence (O75030 whole entry): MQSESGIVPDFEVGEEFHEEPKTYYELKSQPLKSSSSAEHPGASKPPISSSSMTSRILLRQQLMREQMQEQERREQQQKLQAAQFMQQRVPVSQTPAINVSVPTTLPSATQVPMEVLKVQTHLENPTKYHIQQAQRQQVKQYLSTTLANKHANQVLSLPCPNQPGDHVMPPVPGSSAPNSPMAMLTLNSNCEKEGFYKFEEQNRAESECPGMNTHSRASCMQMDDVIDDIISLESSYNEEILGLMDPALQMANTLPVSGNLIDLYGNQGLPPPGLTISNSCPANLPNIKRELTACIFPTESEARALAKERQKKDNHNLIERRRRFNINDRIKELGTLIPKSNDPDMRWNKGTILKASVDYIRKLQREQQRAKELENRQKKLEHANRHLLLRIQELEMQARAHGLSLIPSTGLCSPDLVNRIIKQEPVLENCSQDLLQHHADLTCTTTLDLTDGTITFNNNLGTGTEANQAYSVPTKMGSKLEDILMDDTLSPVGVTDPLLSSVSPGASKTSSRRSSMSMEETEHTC
Description: TRPM1 promoter luciferase signal decrease, dose response, MITF inhibitor project, cell-based, SK-MEL-5, cherry-picked, set 3 (AID 493073).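 Further: SK-MEL-5 melanoma cells with luciferase driven by the MITF target TRPM1 promoter.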 The class given is functional.

The target in the next test is T4, Protein skinhead-1 (Caenorhabditis elegans, UniProt P34707).
T4 sequence (P34707 whole entry): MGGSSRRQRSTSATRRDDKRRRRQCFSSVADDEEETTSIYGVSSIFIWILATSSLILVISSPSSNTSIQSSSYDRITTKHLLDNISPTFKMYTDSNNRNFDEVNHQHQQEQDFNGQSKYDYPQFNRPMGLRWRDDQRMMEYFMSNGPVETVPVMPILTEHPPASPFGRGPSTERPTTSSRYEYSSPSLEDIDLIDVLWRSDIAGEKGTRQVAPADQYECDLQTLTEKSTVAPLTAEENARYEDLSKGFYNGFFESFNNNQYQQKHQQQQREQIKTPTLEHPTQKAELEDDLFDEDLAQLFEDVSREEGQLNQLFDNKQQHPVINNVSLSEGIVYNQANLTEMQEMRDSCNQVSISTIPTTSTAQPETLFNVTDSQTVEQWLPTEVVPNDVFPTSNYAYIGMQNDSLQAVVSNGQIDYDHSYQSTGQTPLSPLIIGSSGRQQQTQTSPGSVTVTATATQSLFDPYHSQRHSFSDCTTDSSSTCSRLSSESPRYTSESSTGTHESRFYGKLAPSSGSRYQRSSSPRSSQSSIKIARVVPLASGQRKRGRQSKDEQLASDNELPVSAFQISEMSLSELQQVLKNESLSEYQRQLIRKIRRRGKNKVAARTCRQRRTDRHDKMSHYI
The class given is functional.

A short description of test [6]: Luminescence Cell-Based Dose Response HTS to Identify Activators of Luciferase Translation or Activity in H4 […] Cells. [Related pubchem assays: 1829 (Project Summary), 1814 (Primary HTS)]. The format is functional.
Test [7] concerns BJ. Description: cytotoxicity toward BJ-TERT fibroblasts, dose response, cell-based, RAS-independent, luminescence (AID 1933). The format is functional. The following applies: Homo sapiens.
In test [8] the test system is BJ. Description: cytotoxicity toward BJ-TERT-LT-ST fibroblasts, dose response, cell-based, RAS-independent, luminescence (AID 1935).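 Further: BJ fibroblasts immortalized with TERT plus LT and ST oncogenes.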 The class given is functional. The conditions noted are these: Homo sapiens.
Test [9] is described as follows: Luminescence Cell-Based Dose Confirmation HTS to Identify Activators of 5'UTR Stem-Loop Driven Alpha-Synuclein mRNA Translation in H4 Neuroglioblastoma Cells. [Related pubchem assays: 1829 (Project Summary), 1814 (Primary HTS)]. The format is functional.
The nature of test [10]: cytotoxicity toward DRD oncogenic fibroblasts, dose response, cell-based, non-viral oncogenic, luminescence (AID 1934). The format is functional. The conditions noted are these: Homo sapiens.
Test [11] concerns BJ. Description: cells. The format is functional, cell-based. The conditions noted are these: Homo sapiens.
Test [12] addresses T5, Heat shock factor protein 1 (Mus musculus, UniProt P38532).
T5 sequence (P38532 whole entry): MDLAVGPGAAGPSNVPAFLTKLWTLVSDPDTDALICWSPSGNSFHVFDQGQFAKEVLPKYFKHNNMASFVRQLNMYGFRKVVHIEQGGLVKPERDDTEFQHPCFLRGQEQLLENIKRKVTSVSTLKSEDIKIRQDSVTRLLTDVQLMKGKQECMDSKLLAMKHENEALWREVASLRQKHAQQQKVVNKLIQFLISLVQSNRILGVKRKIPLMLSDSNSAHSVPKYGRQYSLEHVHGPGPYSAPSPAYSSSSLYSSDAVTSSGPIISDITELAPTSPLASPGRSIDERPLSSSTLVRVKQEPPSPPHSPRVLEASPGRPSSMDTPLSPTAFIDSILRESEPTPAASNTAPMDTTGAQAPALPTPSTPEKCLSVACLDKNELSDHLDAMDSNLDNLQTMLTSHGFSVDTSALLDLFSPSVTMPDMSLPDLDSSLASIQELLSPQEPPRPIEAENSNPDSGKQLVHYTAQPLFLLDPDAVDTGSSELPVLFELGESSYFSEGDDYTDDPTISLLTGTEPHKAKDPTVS
Description: inhibition of MG132-induced HSE-luciferase signal, confirmation, cell-based, NIH3T3, luminescence, dose retest (AID 2382).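 Further: NIH3T3 fibroblasts with HSF1-driven luciferase reporter stressed by proteasome inhibitor MG132; luminescence from HSF1-driven luciferase expression after 8 hours of MG132 stress.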 The class given is functional.

Test [13] has as its target T5, Heat shock factor protein 1. Description: HSF1 potentiators in luciferase reporter cells, confirmation, cell-based, NIH3T3, luminescence, dose retest (AID 435004).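 Further: stress induced by proteasome inhibitor MG132 added 30 min after compound; luciferase reporter driven by HSF1 response element in NIH3T3 cells; actives raise luminescence as potentiators of the MG132 stress response.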 The class given is functional.
The target in test [14] is Luciferin 4-monooxygenase (Photinus pyralis, UniProt P08659). Description: firefly luciferase enzyme inhibitors, dose response, biochemical, luminescence (AID 1891).
Chain of Luciferin 4-monooxygenase (P08659 whole entry): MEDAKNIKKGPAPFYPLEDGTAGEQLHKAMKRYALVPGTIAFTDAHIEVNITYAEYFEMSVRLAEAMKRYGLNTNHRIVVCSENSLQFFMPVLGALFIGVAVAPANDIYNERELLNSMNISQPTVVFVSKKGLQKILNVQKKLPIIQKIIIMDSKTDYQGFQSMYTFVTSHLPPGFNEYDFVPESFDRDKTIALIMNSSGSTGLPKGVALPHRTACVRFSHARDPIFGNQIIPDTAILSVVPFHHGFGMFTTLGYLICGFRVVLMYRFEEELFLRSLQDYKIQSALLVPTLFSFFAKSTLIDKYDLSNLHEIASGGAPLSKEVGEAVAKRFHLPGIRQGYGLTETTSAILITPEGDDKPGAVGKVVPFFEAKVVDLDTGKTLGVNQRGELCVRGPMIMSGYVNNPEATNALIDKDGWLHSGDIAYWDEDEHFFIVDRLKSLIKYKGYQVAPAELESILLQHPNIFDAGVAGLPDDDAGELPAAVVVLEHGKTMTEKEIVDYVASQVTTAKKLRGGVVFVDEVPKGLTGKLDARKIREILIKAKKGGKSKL
The next test addresses Genome polyprotein (dengue virus type 2, UniProt P29990). Description: Dengue-2 NS5 methyltransferase inhibitors, primary screen, biochemical, confirmation dose response (AID 588689). The class given is functional.
The nature of test [15]: Luminescence Cell-Based Dose Confirmation HTS to Identify Inhibitors of Platelet Dense Granule Release. [Related pubchem assays: 1663 (Primary HTS), 1678 (Summary of Project)]. The format is functional.
The target of a further test is Cytochrome P450 3A4 (Homo sapiens, UniProt P08684).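 Further: CYP3A4 tested as one member of a cytochrome P450 panel screen.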
Chain of Cytochrome P450 3A4 (P08684 whole entry): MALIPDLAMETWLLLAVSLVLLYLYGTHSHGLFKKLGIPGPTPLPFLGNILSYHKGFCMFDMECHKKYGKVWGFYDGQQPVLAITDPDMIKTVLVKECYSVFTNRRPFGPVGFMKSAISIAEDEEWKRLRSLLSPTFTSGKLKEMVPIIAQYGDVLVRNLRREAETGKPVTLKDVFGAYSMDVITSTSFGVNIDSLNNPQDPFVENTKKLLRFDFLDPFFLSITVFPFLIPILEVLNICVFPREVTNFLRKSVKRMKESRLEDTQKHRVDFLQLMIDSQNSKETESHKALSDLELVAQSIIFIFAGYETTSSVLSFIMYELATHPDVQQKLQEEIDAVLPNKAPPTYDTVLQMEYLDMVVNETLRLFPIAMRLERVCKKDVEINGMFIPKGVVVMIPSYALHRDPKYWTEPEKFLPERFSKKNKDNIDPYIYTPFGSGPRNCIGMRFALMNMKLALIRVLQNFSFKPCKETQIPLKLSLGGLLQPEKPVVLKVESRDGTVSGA

Chain of DNA dC->dU-editing enzyme APOBEC-3G (Q9HC16 whole entry, the tested form may be a part): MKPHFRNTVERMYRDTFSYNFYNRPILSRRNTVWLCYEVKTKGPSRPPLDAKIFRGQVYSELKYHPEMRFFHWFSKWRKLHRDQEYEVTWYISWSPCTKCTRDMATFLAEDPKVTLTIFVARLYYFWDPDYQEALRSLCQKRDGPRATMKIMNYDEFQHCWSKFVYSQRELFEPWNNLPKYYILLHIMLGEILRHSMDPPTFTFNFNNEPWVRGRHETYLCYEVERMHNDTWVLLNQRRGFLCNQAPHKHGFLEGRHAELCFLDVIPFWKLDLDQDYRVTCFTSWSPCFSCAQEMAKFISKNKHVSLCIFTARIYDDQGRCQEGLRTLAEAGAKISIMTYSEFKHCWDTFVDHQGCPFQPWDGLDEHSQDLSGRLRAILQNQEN
Chain of Genome polyprotein (P29990 2492-3391 limits assumed): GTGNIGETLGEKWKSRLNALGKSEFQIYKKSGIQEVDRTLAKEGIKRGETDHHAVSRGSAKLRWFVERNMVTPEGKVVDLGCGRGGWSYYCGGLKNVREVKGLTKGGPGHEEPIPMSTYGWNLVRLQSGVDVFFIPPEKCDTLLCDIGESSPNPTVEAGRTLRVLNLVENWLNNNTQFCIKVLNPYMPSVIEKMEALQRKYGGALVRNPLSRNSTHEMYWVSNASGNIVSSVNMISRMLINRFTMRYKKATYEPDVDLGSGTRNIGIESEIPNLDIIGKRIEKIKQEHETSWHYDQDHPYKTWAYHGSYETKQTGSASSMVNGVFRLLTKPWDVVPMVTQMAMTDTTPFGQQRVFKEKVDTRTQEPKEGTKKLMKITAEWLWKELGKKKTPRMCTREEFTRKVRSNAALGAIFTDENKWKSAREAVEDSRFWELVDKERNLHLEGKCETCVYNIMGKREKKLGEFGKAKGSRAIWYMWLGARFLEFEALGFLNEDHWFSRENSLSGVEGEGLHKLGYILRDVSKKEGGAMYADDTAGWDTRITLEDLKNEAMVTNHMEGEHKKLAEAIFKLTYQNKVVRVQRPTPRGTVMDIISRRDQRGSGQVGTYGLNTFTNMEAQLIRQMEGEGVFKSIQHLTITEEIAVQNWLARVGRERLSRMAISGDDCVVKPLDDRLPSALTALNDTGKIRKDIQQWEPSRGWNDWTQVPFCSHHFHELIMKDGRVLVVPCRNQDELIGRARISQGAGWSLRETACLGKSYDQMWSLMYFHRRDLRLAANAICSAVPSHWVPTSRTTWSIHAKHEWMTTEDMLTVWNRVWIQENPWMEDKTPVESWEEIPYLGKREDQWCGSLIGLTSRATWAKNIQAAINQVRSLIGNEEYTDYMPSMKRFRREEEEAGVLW

Take `COc1cc(/C=C/c2cc[n+](C)cc2)ccc1OCC(=O)Nc1ccccc1`: the IC50 (in general, the concentration that inhibits the measured activity by half) in test [1] was 2.02 µM (active); in test [2], 5.84 µM (active); in test [3] it was 2.93 µM (active).

Take `NS(=O)(=O)c1ccc(CCNCc2ccccc2OCc2ccc(F)cc2)cc1`: the EC50 (as a rule, the midpoint of the concentration-response curve) in test [4] is 3.35 µM (active).

For `CC(=O)Nc1ccc(-c2ccccc2)s1`, the half-inhibitory concentration (IC50) in [1] was 5.05 µM (active); in [3], 5.3 µM (active).

In the case of `N=C1/C(=C/c2ccco2)C(=O)N=C2SC(CC(=O)N3CCCC3)=NN12`, the figures for the concentration for half-maximal inhibition (IC50) in test [1], in test [2] and in test [3] were 37.6 µM (active), 7.01 µM (active) and 18.5 µM (active), respectively.

On to `COc1cc2c(cc1OC)C(c1ccccc1)N(C(=O)CCl)CC2` (stereo not drawn), for which the EC50 was > 120 µM (not active) in the test with H4; > 120 µM (not active) in test [6]; 5.08 µM (inconclusive) with BJ [7]; 4.74 µM (active) in the test on BJ [8]; > 120 µM (not active) in [9]; 8.09 µM (active) in test [10]. In the test on BJ [11], the EC50 is 7.81 µM (inconclusive). Further, in [5], the AC50 (commonly the concentration giving half of the maximal activity seen) is 5.36 µM (active). Besides, at Protein skinhead-1, the IC50 was > 100 µM (inactive).

Regarding `CCCC[N+]12CCC(CC1)C(C(O)(c1ccccc1)c1ccccc1)C2` (stereo not drawn), the EC50 in test [12] was > 195 µM (not active). Besides, the figures for the concentration for half-maximal inhibition (IC50) in [1] and in test [3] were 2.79 µM (active) and 2.74 µM (active), respectively.

Take `O=C(Nc1ccc(Oc2ccccc2)nc1)C1CCN(Cc2ccccc2)CC1`: the EC50 in test [4] is 2.37 µM (active).

As to `COC(=O)c1ccc(CSc2nc3ccccc3c(=O)n2CC(C)C)o1`, the EC50 in test [13] was > 260 µM (inactive); in [4], 3.35 µM (active).

With `CNC(=O)COc1ccc2oc3c(c2c1)CCCC3`, in [4], the concentration giving a half-maximal response (EC50) is 1.33 µM (active).

For the compound `CC1(C)CC(=O)C=C(NC2=CC3OC(c4ccccc4)OCC3OC2=O)C1` (stereo not drawn), the AC50 in test [5] is 7.71 µM (active). Further, the EC50 is > 112 µM (not active) in [14], 6.65 µM (inconclusive) in [13] and 14.8 µM (active) in [15]. The half-maximal inhibitory concentration (IC50) at Genome polyprotein is > 100 µM (active).

For the compound `CCCCNc1nc(-c2ccccc2)c(C(=O)OCC)cc1C#N`, on Cytochrome P450 3A4, the concentration at half-maximal activity (AC50) is 28.2 µM (inconclusive). Moreover, the EC50 in test [4] was 1.19 µM (active).

Take `CCOC(=O)c1cc(C#N)c(N2CCCCC2)nc1-c1ccccc1`: the concentration giving a half-maximal response (EC50) in test [4] is 3.76 µM (active).
